Source: paper PMC5563081, “Modulating Protein-Protein Interactions of the Mitotic Polo-like Kinases to Target Mutant KRAS” (Cell Chemical Biology, 2017)
Values joined by “and” are separate entries in the source; they are usually repeats but may differ in a detail not shown here. Equal values may be shown once. Read-outs that look alike come from different tables or passages of the source.

What was measured:
SW48 KRAS G12D cells = test: Cell viability (SRB), SW48 KRAS G12D; assay type: cell-based; details: Homo sapiens
Protocol: SW48 Parental, SW48 G12D, Panc-1, HPAF-II, Panc 02.03 and Panc 05.04 cell lines were seeded overnight at 5000 cells per well in a 96 well plate in recommended media (ATCC). Compounds were added the following day and viability was measured at 72h using the sulforhodamine B (SRB) colorimetric assay as follows. Cells were fixed by replacing media with 1% v/v Trichloroacetic Acid (TCA) (Sigma-Aldrich) at 4°C and incubated for 1h also at 4°C. Wells were washed thoroughly with copious amounts of deionised water before staining with Sulforhodamine B (SRB) (Sigma-Aldrich) solution (0.057% w/v in 1% v/v Acetic Acid (VWR)) for 30 min. Stain was aspirated and wells washed with several changes of 1% v/v Acetic Acid until unbound stain was removed, before air-drying. Bound stain was solubilized with 100μl / well 10mM Tris (pH 8.0) (Trizma Base (121.1) Sigma-Aldrich) with agitation for 10 min. Fluorescence intensity was recorded at Ex540nm / Em590nm using a BMG Pherastar Plus plate reader ([Vichai and Kirtikara, 2006]).

[1] = tested on: kinase catalytic domains of PLK1, PLK2, PLK3, PLK4 and 51 other protein kinases; test: DiscoverX KINOMEscan panel of 55 kinases (statements in words); assay type: binding, human; details: cut-off <35% of control
Protocol: (§1) A panel of 55 proteins (comprising 51 human kinases structurally or functionally related to the PLKs, plus the kinase catalytic domains of PLK1, PLK2, PLK3 and PLK4) were selected for testing by DiscoverX using the KINOMEscan assay platform. Compounds were supplied as 40x DMSO stocks and were tested at a final concentration of 50μM for Poloppin and 5μM for Poloppin-II. Binding interactions were reported as percentage of control where lower numbers indicate stronger binding. A cut-off of <35% was applied to report significant binding.

PLK1 PBD = PLK1 PBD (Homo sapiens, UniProt P53350); test: Fluorescence polarisation (FP) assay, PLK1 PBD; assay type: binding; parameters: PLK1 PBD (aa345-603) 84nM; GST (N, cleaved yes); made in house; host or cells: E. coli C41
PLK1 PBD, sequence (P53350 345-603): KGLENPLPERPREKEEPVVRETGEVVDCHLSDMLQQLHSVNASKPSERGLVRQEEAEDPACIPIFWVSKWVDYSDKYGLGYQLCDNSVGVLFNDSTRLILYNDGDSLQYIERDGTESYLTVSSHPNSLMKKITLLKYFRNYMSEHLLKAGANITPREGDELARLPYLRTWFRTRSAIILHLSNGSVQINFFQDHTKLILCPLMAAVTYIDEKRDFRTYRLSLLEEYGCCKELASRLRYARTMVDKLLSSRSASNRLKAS
Protocol: Final concentrations of assay components used in binding assays were as follows: TAMRA-labelled consensus PLK1 PBD binding phosphopeptide, 5-TAMRA-MAGPMQS(pThreonine)PLMGAKK-acid 10nM; PLK1 PBD (aa345-603) 84nM (2.5ng/μl). Assays were carried out in PBS (pH 7.4) plus 0.03% tween. DMSO controls were run alongside all experimental compounds and % inhibition normalised to these controls. Compounds were titrated 2 fold from a top concentration of 250μM giving a maximum final concentration of DMSO in the assay of 0.25%; however the assay can tolerate DMSO up to 5%. Compound and PBD protein were incubated together at 22°C for 1 hour prior to addition of the TAMRA labelled binding phosphopeptide. The total assay volume per well was 45μl. All experiments were performed in NBS black 384-well microtiter plates (Corning). Fluorescence Polarisation (FP) was read using a BMG PheraStar plate reader with a 540/590/590nm FP module and unbound 10nm TAMRA-labelled peptide set to a FP value of 35mP.

HeLa cells = test: Mitotic index assay in HeLa cells; assay type: cell-based, human; details: for EC50: Homo sapiens
Protocol: Cells were plated at 10 000/well in 96-well plates and incubated overnight. The following day compound stocks in DMSO were diluted in medium then added to cells with a maximum final DMSO concentration on cells of 0.2%. […] Cells were permeabilised with 0.1% Triton X-100 then incubated with anti-phospho-histone H3 (Ser10) antibody (Abcam ab5176). The cells were washed with PBS then incubated with AlexaFluor 488 labelled goat anti-rabbit IgG (Invitrogen A11034) in the presence of 4ug/ml Hoechst 33342 (Invitrogen H3570). Cells were washed in PBS then imaged on an Arrayscan VTi HCS instrument (Thermo Fisher) using the Target Activation V4 Bioapplication. A user-defined threshold was applied to identify mitotic cells based on the intensity of phospho-histone H3 staining.

STK36 = biological target: T1, STK36 (Homo sapiens, UniProt Q9NRP7); test: DiscoverX KINOMEscan; assay type: binding; details: read-out: % Control
T1 construct: purchased DiscoverX KINOMEscan
T1 sequence (Q9NRP7 whole entry): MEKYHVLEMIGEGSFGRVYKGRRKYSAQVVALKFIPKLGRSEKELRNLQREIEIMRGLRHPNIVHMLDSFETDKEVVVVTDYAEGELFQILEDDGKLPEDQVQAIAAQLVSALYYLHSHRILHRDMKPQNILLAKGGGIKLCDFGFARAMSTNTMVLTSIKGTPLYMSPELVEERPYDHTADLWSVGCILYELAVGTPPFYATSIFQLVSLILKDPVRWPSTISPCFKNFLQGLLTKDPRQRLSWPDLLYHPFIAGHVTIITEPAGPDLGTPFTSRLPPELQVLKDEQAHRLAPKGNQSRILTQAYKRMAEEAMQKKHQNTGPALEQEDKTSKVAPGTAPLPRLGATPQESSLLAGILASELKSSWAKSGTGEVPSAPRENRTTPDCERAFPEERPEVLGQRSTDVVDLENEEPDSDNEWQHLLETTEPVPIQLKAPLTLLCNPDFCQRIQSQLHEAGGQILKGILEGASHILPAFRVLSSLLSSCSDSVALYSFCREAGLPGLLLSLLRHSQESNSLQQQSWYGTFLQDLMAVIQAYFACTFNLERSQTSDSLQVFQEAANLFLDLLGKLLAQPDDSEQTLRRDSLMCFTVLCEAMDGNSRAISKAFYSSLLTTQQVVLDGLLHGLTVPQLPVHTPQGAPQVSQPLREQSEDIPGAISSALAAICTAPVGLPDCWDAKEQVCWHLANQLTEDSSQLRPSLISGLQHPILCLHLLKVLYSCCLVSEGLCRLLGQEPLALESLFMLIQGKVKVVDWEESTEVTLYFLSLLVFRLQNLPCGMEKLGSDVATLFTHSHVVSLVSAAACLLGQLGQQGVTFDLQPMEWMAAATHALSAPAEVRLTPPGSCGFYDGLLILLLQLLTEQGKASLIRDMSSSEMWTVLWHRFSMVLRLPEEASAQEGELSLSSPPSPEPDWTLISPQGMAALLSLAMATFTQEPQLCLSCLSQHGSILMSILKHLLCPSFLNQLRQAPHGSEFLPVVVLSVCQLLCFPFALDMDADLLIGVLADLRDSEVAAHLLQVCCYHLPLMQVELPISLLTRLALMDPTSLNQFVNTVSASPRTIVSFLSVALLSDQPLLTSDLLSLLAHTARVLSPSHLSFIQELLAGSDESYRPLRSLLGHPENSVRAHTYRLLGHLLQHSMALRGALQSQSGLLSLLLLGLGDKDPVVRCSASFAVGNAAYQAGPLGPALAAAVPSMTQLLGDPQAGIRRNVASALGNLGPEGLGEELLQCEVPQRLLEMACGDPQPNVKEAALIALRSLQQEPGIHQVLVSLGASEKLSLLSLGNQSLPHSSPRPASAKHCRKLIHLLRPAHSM
Protocol: as §1

STK35 = biological target: T2, STK35 (Homo sapiens, UniProt Q8TDR2); test: DiscoverX KINOMEscan; assay type: binding; details: read-out: % Control
T2 construct: purchased DiscoverX KINOMEscan
Protocol: as §1

NEK9 = biological target: T3, NEK9 (Homo sapiens, UniProt Q8TD19); test: DiscoverX KINOMEscan; assay type: binding; details: read-out: % Control
T3 construct: purchased DiscoverX KINOMEscan
Protocol: as §1

CHUK = biological target: T4, CHUK (Homo sapiens, UniProt O15111); test: DiscoverX KINOMEscan; assay type: binding; details: read-out: % Control
T4 construct: purchased DiscoverX KINOMEscan
Protocol: as §1

IKBKB = biological target: T5, IKBKB (Homo sapiens, UniProt O14920); test: DiscoverX KINOMEscan; assay type: binding; details: read-out: % Control
T5 construct: purchased DiscoverX KINOMEscan
T5 sequence (O14920 whole entry): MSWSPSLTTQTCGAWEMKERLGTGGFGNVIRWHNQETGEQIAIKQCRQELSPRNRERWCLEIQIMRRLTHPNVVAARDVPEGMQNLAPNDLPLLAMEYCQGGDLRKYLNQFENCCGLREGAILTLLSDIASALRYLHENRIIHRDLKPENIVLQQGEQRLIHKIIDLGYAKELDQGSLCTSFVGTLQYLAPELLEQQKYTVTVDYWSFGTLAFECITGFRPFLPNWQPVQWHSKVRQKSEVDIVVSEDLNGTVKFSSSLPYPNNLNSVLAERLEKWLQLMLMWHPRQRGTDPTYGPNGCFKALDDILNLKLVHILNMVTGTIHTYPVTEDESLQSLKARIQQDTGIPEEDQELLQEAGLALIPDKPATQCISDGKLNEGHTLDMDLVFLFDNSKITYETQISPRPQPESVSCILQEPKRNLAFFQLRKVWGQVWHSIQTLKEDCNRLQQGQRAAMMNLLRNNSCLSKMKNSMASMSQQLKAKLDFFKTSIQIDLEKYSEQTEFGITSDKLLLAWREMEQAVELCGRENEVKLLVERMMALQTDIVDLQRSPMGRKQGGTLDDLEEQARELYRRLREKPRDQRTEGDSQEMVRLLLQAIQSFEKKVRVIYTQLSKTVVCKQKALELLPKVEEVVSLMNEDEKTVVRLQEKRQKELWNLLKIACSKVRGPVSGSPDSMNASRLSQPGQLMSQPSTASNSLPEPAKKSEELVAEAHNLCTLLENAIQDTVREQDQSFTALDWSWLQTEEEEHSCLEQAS
Protocol: as §1

CDK2 = biological target: T6, CDK2 (Homo sapiens, UniProt P24941); test: DiscoverX KINOMEscan; assay type: binding; details: read-out: % Control
T6 construct: purchased DiscoverX KINOMEscan
Protocol: as §1

WNK3 = biological target: T7, WNK3 (Homo sapiens, UniProt Q9BYP7); test: DiscoverX KINOMEscan; assay type: binding; details: read-out: % Control
T7 construct: purchased DiscoverX KINOMEscan
T7 sequence (Q9BYP7 whole entry): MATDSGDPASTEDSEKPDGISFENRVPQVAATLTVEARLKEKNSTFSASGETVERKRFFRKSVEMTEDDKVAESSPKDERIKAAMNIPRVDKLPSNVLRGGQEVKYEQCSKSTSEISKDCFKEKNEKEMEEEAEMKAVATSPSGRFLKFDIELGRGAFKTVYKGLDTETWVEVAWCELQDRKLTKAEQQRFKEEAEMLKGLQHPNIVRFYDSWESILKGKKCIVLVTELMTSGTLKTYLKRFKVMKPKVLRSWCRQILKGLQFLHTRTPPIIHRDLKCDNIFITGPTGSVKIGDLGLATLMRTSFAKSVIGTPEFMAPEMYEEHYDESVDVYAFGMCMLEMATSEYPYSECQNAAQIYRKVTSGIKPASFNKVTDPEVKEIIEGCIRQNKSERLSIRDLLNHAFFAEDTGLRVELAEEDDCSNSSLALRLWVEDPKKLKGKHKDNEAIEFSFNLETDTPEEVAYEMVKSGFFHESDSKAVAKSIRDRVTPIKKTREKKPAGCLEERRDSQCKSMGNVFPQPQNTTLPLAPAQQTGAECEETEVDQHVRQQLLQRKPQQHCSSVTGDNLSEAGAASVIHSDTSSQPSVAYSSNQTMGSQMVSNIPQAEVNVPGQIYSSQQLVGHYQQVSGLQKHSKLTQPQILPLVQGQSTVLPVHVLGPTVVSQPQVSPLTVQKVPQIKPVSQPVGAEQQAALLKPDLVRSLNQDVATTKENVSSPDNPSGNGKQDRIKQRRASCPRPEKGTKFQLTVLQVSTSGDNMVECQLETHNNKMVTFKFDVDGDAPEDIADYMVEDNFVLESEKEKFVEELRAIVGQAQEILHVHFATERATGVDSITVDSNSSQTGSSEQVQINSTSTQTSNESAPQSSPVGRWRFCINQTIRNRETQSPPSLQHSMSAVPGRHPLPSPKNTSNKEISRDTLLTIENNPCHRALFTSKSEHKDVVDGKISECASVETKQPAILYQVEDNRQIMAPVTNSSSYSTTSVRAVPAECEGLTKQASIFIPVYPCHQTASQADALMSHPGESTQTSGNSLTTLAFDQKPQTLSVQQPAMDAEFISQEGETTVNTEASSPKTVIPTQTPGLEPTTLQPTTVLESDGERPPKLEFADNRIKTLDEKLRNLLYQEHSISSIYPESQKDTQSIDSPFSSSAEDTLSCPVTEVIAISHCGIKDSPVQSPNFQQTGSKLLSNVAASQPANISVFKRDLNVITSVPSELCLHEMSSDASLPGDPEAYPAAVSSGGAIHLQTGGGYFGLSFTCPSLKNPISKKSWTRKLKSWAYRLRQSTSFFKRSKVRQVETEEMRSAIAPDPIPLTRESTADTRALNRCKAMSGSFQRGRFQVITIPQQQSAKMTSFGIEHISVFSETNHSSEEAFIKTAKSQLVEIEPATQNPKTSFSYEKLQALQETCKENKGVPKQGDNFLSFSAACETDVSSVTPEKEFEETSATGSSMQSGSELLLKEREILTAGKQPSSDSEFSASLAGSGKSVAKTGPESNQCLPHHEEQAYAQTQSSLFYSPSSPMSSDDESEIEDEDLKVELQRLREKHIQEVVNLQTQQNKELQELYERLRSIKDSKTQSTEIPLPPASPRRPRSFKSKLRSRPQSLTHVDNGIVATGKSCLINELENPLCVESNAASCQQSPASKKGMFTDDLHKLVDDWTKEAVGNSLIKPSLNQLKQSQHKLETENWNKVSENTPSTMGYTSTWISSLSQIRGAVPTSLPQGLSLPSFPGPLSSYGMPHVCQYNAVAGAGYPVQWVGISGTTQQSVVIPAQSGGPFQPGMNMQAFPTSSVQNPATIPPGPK
Protocol: as §1

AAK1 = biological target: T8, AAK1 (Homo sapiens, UniProt Q2M2I8); test: DiscoverX KINOMEscan; assay type: binding; details: read-out: % Control
T8 construct: purchased DiscoverX KINOMEscan
Protocol: as §1

IKBKE = biological target: T9, IKBKE (Homo sapiens, UniProt Q14164); test: DiscoverX KINOMEscan; assay type: binding; details: read-out: % Control
T9 construct: purchased DiscoverX KINOMEscan
Protocol: as §1

STK16 = biological target: T10, STK16 (Homo sapiens, UniProt O75716); test: DiscoverX KINOMEscan; assay type: binding; details: read-out: % Control
T10 construct: purchased DiscoverX KINOMEscan
T10 sequence (O75716 whole entry): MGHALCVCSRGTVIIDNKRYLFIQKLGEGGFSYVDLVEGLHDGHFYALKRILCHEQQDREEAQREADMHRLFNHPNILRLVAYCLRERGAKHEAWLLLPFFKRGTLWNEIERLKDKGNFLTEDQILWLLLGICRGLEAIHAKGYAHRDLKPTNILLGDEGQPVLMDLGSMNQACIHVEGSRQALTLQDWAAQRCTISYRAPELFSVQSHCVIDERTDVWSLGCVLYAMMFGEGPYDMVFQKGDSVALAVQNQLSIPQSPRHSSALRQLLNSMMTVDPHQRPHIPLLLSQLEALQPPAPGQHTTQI
Protocol: as §1

WNK2 = biological target: T11, WNK2 (Homo sapiens, UniProt Q9Y3S1); test: DiscoverX KINOMEscan; assay type: binding; details: read-out: % Control
T11 construct: purchased DiscoverX KINOMEscan
Protocol: as §1

CAMKK1 = biological target: T12, CAMKK1 (Homo sapiens, UniProt Q8N5S9); test: DiscoverX KINOMEscan; assay type: binding; details: read-out: % Control
T12 construct: purchased DiscoverX KINOMEscan
Protocol: as §1

AURKB = biological target: T13, AURKB (Homo sapiens, UniProt Q96GD4); test: DiscoverX KINOMEscan; assay type: binding; details: read-out: % Control
T13 construct: purchased DiscoverX KINOMEscan
Protocol: as §1

[2] = biological target: T14, PLK2 kinase catalytic domain (Homo sapiens, UniProt Q9NYY3); test: DiscoverX KINOMEscan; assay type: binding; details: read-out: % Control
T14 construct: PLK2 kinase catalytic domain; purchased DiscoverX KINOMEscan
Protocol: as §1

ROCK2 = biological target: T15, ROCK2 (Homo sapiens, UniProt O75116); test: DiscoverX KINOMEscan; assay type: binding; details: read-out: % Control
T15 construct: purchased DiscoverX KINOMEscan
Protocol: as §1

CAMKK2 = biological target: T16, CAMKK2 (Homo sapiens, UniProt Q96RR4); test: DiscoverX KINOMEscan; assay type: binding; details: read-out: % Control
T16 construct: purchased DiscoverX KINOMEscan
T16 sequence (Q96RR4 whole entry): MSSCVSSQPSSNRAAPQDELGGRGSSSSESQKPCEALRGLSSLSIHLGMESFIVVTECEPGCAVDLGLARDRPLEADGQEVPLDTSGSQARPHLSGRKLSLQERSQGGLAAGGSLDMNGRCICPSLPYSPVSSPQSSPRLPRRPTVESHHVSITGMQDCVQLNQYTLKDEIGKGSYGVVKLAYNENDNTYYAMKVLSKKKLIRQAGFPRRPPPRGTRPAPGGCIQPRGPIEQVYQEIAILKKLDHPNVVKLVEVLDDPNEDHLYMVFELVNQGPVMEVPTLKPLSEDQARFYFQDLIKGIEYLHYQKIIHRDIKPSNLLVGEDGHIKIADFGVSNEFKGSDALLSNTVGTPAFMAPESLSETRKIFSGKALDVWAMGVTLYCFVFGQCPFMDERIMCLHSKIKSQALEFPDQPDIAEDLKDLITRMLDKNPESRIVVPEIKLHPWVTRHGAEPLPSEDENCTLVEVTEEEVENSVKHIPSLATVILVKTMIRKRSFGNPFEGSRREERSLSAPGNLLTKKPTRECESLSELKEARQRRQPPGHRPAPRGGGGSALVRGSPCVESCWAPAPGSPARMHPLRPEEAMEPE
Protocol: as §1

WEE1 = biological target: T17, WEE1 (Homo sapiens, UniProt P30291); test: DiscoverX KINOMEscan; assay type: binding; details: read-out: % Control
T17 construct: purchased DiscoverX KINOMEscan
Protocol: as §1

[3] = HeLa, Figure 5A, read-out: MI EC50 (cellular assay for mitotic arrest)

Question: What does the source list for `O=C(O)CCc1ccc(-c2ccc(Br)cc2)n1-c1ccccc1C(F)(F)F` [Poloppin]?
Answer: GI50 (SW48 KRAS G12D cells; SW48): 5.3 ± 1.03 µM; binding to 51 other protein kinases ([1]; Poloppin at 50μM): No significant binding; binding to the kinase catalytic domains of PLK1, PLK2, PLK3, PLK4 ([1]; Poloppin at 50μM): does not bind; IC50 (PLK1 PBD; IC50, binding of TAMRA-labeled phosphopeptide to PLK1 PBD): 26.9 µM; EC50, mitotic index assay (HeLa cells; HeLa cells treated for 16 hr, Figure 5B): 14.6 µM; EC50 (HeLa cells; [3]): 14.1 µM; remaining binding at 50 µM (STK36): 91%; remaining binding at 50 µM (STK35): 100%; remaining binding at 50 µM (NEK9): 95%; remaining binding at 50 µM (CHUK): 100%; remaining binding at 50 µM (IKBKB): 100%; remaining binding at 50 µM (CDK2): 84%; remaining binding at 50 µM (WNK3): 100%; remaining binding at 50 µM (AAK1): 92%; remaining binding at 50 µM (IKBKE): 55%; remaining binding at 50 µM (STK16): 81%; remaining binding at 50 µM (WNK2): 100%; remaining binding at 50 µM (CAMKK1): 77%; remaining binding at 50 µM (AURKB): 87%; remaining binding at 50 µM [2]: 78%; remaining binding at 50 µM (ROCK2): 100%; remaining binding at 50 µM (CAMKK2): 82%; remaining binding at 50 µM (WEE1): 99%

Question: With `CN(C)CCNC(=O)c1ccc(-c2ccc(-c3ccc(Cl)cc3)n2-c2ccccc2C(F)(F)F)cc1` [Poloppin-II] as the compound, how does the GI50 (SW48 KRAS G12D cells; SW48 G12D, 72 hr, Figure 5D, read-out: GI50) read?
Answer: Its GI50 is 0.0115 ± 0.00109 µM.

Question: What about the “binding to the kinase catalytic domains of PLK1–4, or to 51 other related kinases” value ([1]; Poloppin-II at 5 μM) of the same compound?
Answer: Its value is “no binding”.

Question: And the IC50 (PLK1 PBD; read-out: IC50, binding of TAMRA-labeled phosphopeptide to PLK1 PBD)?
Answer: The IC50 was 40.9 µM and 41 µM.

Question: What about the EC50 (HeLa cells; [3]) of the same compound?
Answer: The EC50 was 0.069 µM.

Question: And the EC50 (HeLa cells; HeLa cells, Figure 5B, read-out: half maximal effective concentration, cellular assay for mitotic arrest)?
Answer: The EC50 was 0.061 µM.

Question: What about the remaining binding at 5 µM (STK36; STK36, Poloppin-II 5µM, hit <35%) of the same compound?
Answer: Its remaining binding at 5 µM is 91%.

Question: And the remaining binding at 5 µM (STK35; STK35, Poloppin-II 5µM, hit <35%)?
Answer: The remaining binding at 5 µM was 71%.

Question: And the remaining binding at 5 µM (NEK9; NEK9, Poloppin-II 5µM, hit <35%)?
Answer: Its remaining binding at 5 µM is 92%.

Question: What about the remaining binding at 5 µM (CHUK; CHUK, Poloppin-II 5µM, hit <35%) of the same compound?
Answer: Its remaining binding at 5 µM is 100%.

Question: What about the remaining binding at 5 µM (IKBKB; IKBKB, Poloppin-II 5µM, hit <35%) of the same compound?
Answer: The remaining binding at 5 µM was 100%.

Question: And the remaining binding at 5 µM (CDK2; CDK2, Poloppin-II 5µM, hit <35%)?
Answer: The remaining binding at 5 µM was 89%.

Question: And the remaining binding at 5 µM (WNK3; WNK3, Poloppin-II 5µM, hit <35%)?
Answer: The remaining binding at 5 µM was 100%.

Question: What about the remaining binding at 5 µM (AAK1; AAK1, Poloppin-II 5µM, hit <35%) of the same compound?
Answer: The remaining binding at 5 µM was 100%.

Question: And the remaining binding at 5 µM (IKBKE; IKBKE, Poloppin-II 5µM, hit <35%)?
Answer: The remaining binding at 5 µM was 75%.

Question: What about the remaining binding at 5 µM (STK16; STK16, Poloppin-II 5µM, hit <35%) of the same compound?
Answer: Its remaining binding at 5 µM is 92%.

Question: What about the remaining binding at 5 µM (WNK2; WNK2, Poloppin-II 5µM, hit <35%) of the same compound?
Answer: The remaining binding at 5 µM was 100%.

Question: What about the remaining binding at 5 µM (CAMKK1; CAMKK1, Poloppin-II 5µM, hit <35%) of the same compound?
Answer: The remaining binding at 5 µM was 91%.

Question: And the remaining binding at 5 µM (AURKB; AURKB, Poloppin-II 5µM, hit <35%)?
Answer: The remaining binding at 5 µM was 95%.

Question: What about the remaining binding at 5 µM ([2]; PLK2, Poloppin-II 5µM, hit <35%) of the same compound?
Answer: Its remaining binding at 5 µM is 85%.

Question: What about the remaining binding at 5 µM (ROCK2; ROCK2, Poloppin-II 5µM, hit <35%) of the same compound?
Answer: Its remaining binding at 5 µM is 100%.

Question: What about the remaining binding at 5 µM (CAMKK2; CAMKK2, Poloppin-II 5µM, hit <35%) of the same compound?
Answer: Its remaining binding at 5 µM is 97%.

Question: What about the remaining binding at 5 µM (WEE1; WEE1, Poloppin-II 5µM, hit <35%) of the same compound?
Answer: Its remaining binding at 5 µM is 98%.
